Laboratory results taken from patent US20060276486A1, “Lklf/klf2 gene expression promoter” (KOWA CO., KTD., priority 2003, published 2006).

Tests used:
LKLF/KLF2 gene [1] = assay: LKLF/KLF2 gene expression in HUVEC by reverse transcription and TaqMan analysis (ABI PRISM 7000); format: cell-based, human; settings: for activities to promote the expression of LKLF/KLF2 gene (summary statement): cultured human cell system; for effect of added metabolite on the increase of LKLF/KLF2 gene expression by pitavastatin calcium: pitavastatin calcium 1 μmol/L in combination with MVA 100 μmol/L, FPP, GGPP or Cho 10 μmol/L, 8 hours
LKLF/KLF2 gene [2] = assay: LKLF/KLF2 gene expression analysis in HUVEC by Human Genome Focus Array (GeneChip); format: cell-based; settings: control 271
Experimental: Two days after inoculation of normal human umbilical vein endothelial cells (HUVEC) at 3×10^5 cells/10 cm dish, pitavastatin calcium (indicated as “Pit” in FIG. 1) was added to 1.1 μmol/L. Dimethyl sulfoxide, a solvent for pitavastatin calcium, was added to a control (final concentration: 0.0066 v/v %). Eight hours after the addition, total RNAs were extracted with “ISOGEN” (trade mark, product of NIPPON GENE CO., LTD.). The following procedures were conducted in accordance with the procedures manual of Affymetrix. Inc. Described specifically, following the methods known per se in the art, mRNA was isolated from each total RNA obtained above, and based on the mRNA, cDNA was synthesized. Further, biotin-labeled cRNA was synthesized by in vitro transcription. Subsequent to purification, the biotin-labeled cRNA was subjected to fragmentation by heat treatment to prepare fragmented cRNA for use in a gene expression analysis.
Gene expression analysis method: The fragmented cRNA was poured into “Human Genome Focus Array” (trade name, product of Affymetrix, Inc.), and hybridization was conducted at 45° C. for 16 hours. […] The information was analyzed by “GENECHIP SOFTWARE” (trade name, product of Affymetrix, Inc.) to effect a comparison in expression level.

Structure (SMILES)	activities to promote the expression of LKLF/KLF2 gene (summary statement) (LKLF/KLF2 gene [1])	effect of added metabolite on the increase of LKLF/KLF2 gene expression by pitavastatin calcium (LKLF/KLF2 gene [1]; HUVEC)	further results
CSCC[C@H](NC(=O)c1ccc(NC[C@@H](N)CS)cc1-c1ccccc1)C(=O)O [FTI-276]	in possession of activities to promote the expression of LKLF/KLF2 gene		
COC(=O)[C@H](CC(C)C)NC(=O)c1ccc(NC[C@@H](N)CS)cc1-c1ccccc1 [GGTI-286]	in possession of activities to promote the expression of LKLF/KLF2 gene		
CC(C)CCC[C@@H](C)[C@H]1CC[C@H]2[C@@H]3CC=C4C[C@@H](O)CC[C@]4(C)[C@H]3CC[C@]12C [cholesterol]		not affected	
CC(C)=CCC/C(C)=C/CC/C(C)=C/COP(=O)(O)OP(=O)(O)O [farnesyl pyrophosphate]		reduced	
CC(C)=CCC/C(C)=C/CC/C(C)=C/CC/C(C)=C/COP(=O)(O)OP(=O)(O)O [geranylgeranyl pyrophosphate]		reduced	
C[C@@](O)(CCO)CC(=O)O [mevalonic acid]		reduced	
O=C(O)C[C@H](O)C[C@H](O)/C=C/c1c(C2CC2)nc2ccccc2c1-c1ccc(F)cc1 [pitavastatin calcium, (3R,5S,6E)-7-[2-cyclopropyl-4-(4-fluorophenyl)-3-quinolyl]-3,5-dihydroxy-6-heptenoic acid]	has activities to promote the expression of LKLF/KLF2 gene		increase of expression of LKLF/KLF2 gene in comparison with the group added with no drug (LKLF/KLF2 gene [1]; HUVEC, 1 μmol/L alone, 8 hours after addition): 693%; expression of LKLF/KLF2 gene in HUVEC (expression level) with addition of GGPP (LKLF/KLF2 gene [2]; pitavastatin calcium 1.1 μmol/L plus geranylgeranyl pyrophosphate (GGPP), 8 hours): 355; expression of LKLF/KLF2 gene in HUVEC (expression level) (LKLF/KLF2 gene [2]; pitavastatin calcium 1.1 μmol/L, 8 hours after addition): 761
